| melting point [°C] | SMILES |
| --- | --- |
| 195 to 198 | O=C(Nc1ccc(Oc2ccccc2)cc1)Nc1sccc1C(=O)O |
| 189 | CCc1cc(O)n(-c2ccccn2)n1 |
| 183 to 185 | Cc1cccc(-c2ncc(NC(=O)OCc3ccccc3)c(=O)n2CC(=O)O)c1 |
| 178 | CN(C)C(=O)CCC(=O)NC1CCC(CCN2CCN(c3nccc4c3OCC4)CC2)CC1 (stereo not drawn) |
| > 300 | N#CNc1nc2ccc(Cl)cc2[nH]1 |
| 144 to 145 | C=C(OCC)c1nc(-c2ccco2)c2ncn(Cc3ccc(OC)cc3)c2n1 |
| 90 to 91 | CCOC(=O)C(C(=O)OCC)C(C#N)(c1ccc(F)cc1)c1ccc(F)cc1 |
| 144 to 145 | Cn1cc(Oc2ccccc2)c(=O)c(-c2cccc(C(F)(F)F)c2)c1 |
| 48 | Clc1ncccc1-c1ccccc1 |
| 88 to 88.5 | CCOP(=O)(Cc1cc(C=O)ccc1O)OCC |
| 200 to 203 | CC(C)Cn1c(CN2CCCS2(=O)=O)nc2c(N)nc3c(c21)CCCC3 |
| 90 to 104 | CN(C)NC(=O)c1cc(S(C)(=O)=O)c(Cl)cc1NCc1ccco1 |
| 158 to 160 | CCOC(=O)c1c(CN2CCCCC2)nc2cc3c(cc2c1-c1ccc(OC)c(OC)c1)OCCO3 |
| 104 | COCc1nc2c(NC(=O)C(C)(C)C)cccn2c1C |
| 192 to 193 | CCOC(=O)c1ccc(O)c(C#N)c1 |
| 115 | COc1cc(N)c(Cl)cc1C(=O)N[C@H]1CCN(CCCCNc2ncccn2)C[C@H]1OC (relative stereo) |
| 198 to 201 | CC(NC(=O)C1=C(C(=O)Nc2cc(OC3CCCC3)c(Cl)cc2F)CCCC1)c1cccc2ccccc12 (stereo not drawn) |
| 270 to 272 | COc1ccc(CNC(=O)c2c[nH]c3ccc(N4CCCC4)nc3c2=O)cc1 |
| 214 to 217 | Clc1cccc(Nc2ncnc3[nH]nc(NCc4ccccc4)c23)c1 |
| 243 to 245 | CNC1CCN(c2nc3c(cc2F)c(=O)c(C(=O)O)cn3CCF)C1 (stereo not drawn) |
| 132 to 134 | ON=Cc1cc(Br)ccc1OCc1ccccc1 |
| 85 to 90 | C=CCC(O)(C(=O)c1ccccc1)c1ccccc1 (stereo not drawn) |
| 204 | Cc1cccc(NC(=O)NCC(=O)N(CC(=O)NCc2ccccc2)c2ccccc2)c1 |

| melting point [°C] | SMILES |
| --- | --- |
| 86.3 to 86.6 | COc1ccc(-c2cccc(C#N)n2)cc1 |
| 71 to 73 | COc1cccc(-c2cn3cccc(C=O)c3n2)c1 |
| 201 to 202 | Cc1c(S(=O)c2ccc([N+](=O)[O-])cc2)cc(C(C)(C)C)c(O)c1C(=O)O (stereo not drawn) |
| 146 to 147 | Cc1c(-c2ccccc2)sc2c(Cl)c(Cl)c(O)cc12 |
| 201 to 203 | COc1ccc2c(c1)Sc1c(cc(OC)c(OC(C)=O)c1Br)N2 |
| 58 to 64 | CCC1(C)NC(=O)C(C)(CC)N1 (stereo not drawn) |
| > 300 | CC1CC(=O)NN=C1c1ccc2c(c1)OCC(=O)N2 (stereo not drawn) |
| 211 to 214 | C=CCc1c2n(c3ccccc13)C(=O)C(=Cc1ncn(C(c3ccccc3)(c3ccccc3)c3ccccc3)c1C)CC2 |
| 168 to 170 | CS(=O)(=O)c1ccc(Oc2ccc(Cl)c(Cl)c2)nc1C#N |
| 134 to 135 | O=C(O)C(=O)c1ccc(OCc2ccccc2)c(Cl)c1 |
| 143 | Fc1cccc(Nc2nc(Cl)nc(Cl)n2)c1 |
| 130 to 136 | CCC[C@@H](CC1(C(=O)Nc2nnc(CC)s2)CCCC1)C(=O)O |
| 157 | O=C(O)C1=CCc2ccccc21 |
| 159 | CCCCCCCNC(=O)Nc1ccccc1C(=O)NC1CCNCC1 |
| 94 to 95 | O=C1C[C@@H](O)C[C@H](/C=C/c2ccccc2)O1 (relative stereo) |
| 86 to 89 | O=Cc1sc2ccccc2c1-c1ccccc1 |
| 115 to 116 | O=C(Nc1ccc2c(c1)CCN(C(=O)OCc1ccccc1)C2)OCc1ccccc1 |
| 197 to 200 | C=CCN1C(=O)C(C)(C)c2ccc(-c3nc4ccccc4[nH]3)cc21 |
| 164 to 167 | CC1(C)Cc2ccccc2C1NC=NC#N (stereo not drawn) |
| 243 to 245 | Cc1ccc(C2(c3ccc(C)cc3)CCN=C2NC(=O)c2cc(C)n[nH]2)cc1 |
| 154 to 155 | CCc1cn(Cc2ccccc2)c(=O)[nH]c1=O |
| 101 to 106 | COc1ccc(NS(=O)(=O)c2ccc(N3CCC(NC[C@H](O)COc4ccc(O)cc4)CC3)cc2)cc1OC |
| 87 to 90 | Cc1cc(SC2=C(O)CC(CCc3ccsc3CO)(C(C)C)OC2=O)c(C(C)(C)C)cc1CO (stereo not drawn) |

| melting point [°C] | SMILES |
| --- | --- |
| 131 to 132 | CS(=O)(=O)N1Cc2ccccc2C1 |
| 113 to 114 | Cc1ccc(N(C(=O)CCl)c2c(C)cccc2Cl)cc1 |
| 233 to 235 | CC1=NNC(c2ccc3c(c2)Nc2nccnc2S3)=NN1 |
| 91 to 104 | Cc1c(Cc2ccccc2)c(=O)oc2cc(OC(C)c3nnn[nH]3)cc(OC(C)c3nnn[nH]3)c12 (stereo not drawn) |
| 204 | CCCCCCCCCCCCOc1ccc(-c2cc3ccccc3[nH]2)cc1 |
| 214 to 216 | NC1=NN(c2ccc(C(=O)C(F)(F)F)cc2)C(c2ccccc2)C1 (stereo not drawn) |
| 177 to 179 | Nc1nc2ccccc2c2c1nc(-c1ccccc1)n2OCc1ccccc1 |
| 133 to 135 | CCCc1oc(C)cc(=O)c1C(=O)Nc1cccc(C)c1C |
| 188 to 190 | CSc1nncn1-c1ccc(N2C[C@H](CNC(C)=O)OC2=O)cc1F |
| 95.9 to 99.9 | Cc1cc(C)c(N2CCCc3c2[nH]n(C)c3=O)c(Cl)c1 |
| 135 to 137 | CC(C)(C)c1ccc(C(O)CCCN2CCC(C3(O)c4ccccc4COc4ccccc43)CC2)cc1 (stereo not drawn) |
| 211 to 212 | Clc1ccc(-c2[nH]nc(C3=CCN4CCC[C@H]4C3)c2-c2ccncc2)cc1 |
| 104 | CCCCCCCCCCCCOc1ccc(-c2cc3ccccc3[nH]2)cc1OC |
| 74 to 77 | CCCc1c(OCCOCCOCCOc2c(C(C)=O)ccc(OCC(=O)O)c2CCC)ccc(C(C)=O)c1O |
| 241 | NS(=O)(=O)c1cccc(NC(=O)c2cnn3c(C(F)F)cc(-c4ccc(C(F)(F)F)c(OCC(F)(F)F)c4)nc23)c1 |
| 131 to 135 | COc1cc(C)c(C(O)c2c(Cl)c(Cl)nc(Cl)c2C(F)(F)F)c(OC)c1OC (stereo not drawn) |
| 75 to 77 | COC(=O)Nc1ccc(C(=O)N(C)C)c(S(N)(=O)=O)c1 |
| > 270 | CC(C)c1ccc(-c2nc(=O)n(Cc3ccccc3)c3ccc(O)cc23)cc1 |
| 90 to 92 | Cc1cnc(OCC2CN(C(C)(C)C)C(c3ccccc3)O2)c2cc(Cl)ccc12 (stereo not drawn) |
| 95 to 99 | CC(C)NCCCCCOc1ccc(O)cc1 |
| 230 to 236 | COC(=O)Nc1cn2cc(Sc3ccccn3)ccc2n1 |
| 111 | Cc1ccc(-c2nc(CCCCCCSC(C)(C)C(=O)O)c(C)o2)cc1 |
| 54 to 55 | O=C(OCc1cc(OCCCO)c(OCCCO)c(OCCCO)c1)c1ccccc1 |

| SMILES | melting point [°C] |
| --- | --- |
| CN1C(=O)[C@H](NC(=O)Nc2ccc(Cl)cc2Cl)N=C(c2ccccc2)c2ccccc21 | 215 to 216 |
| CN1Cc2c(C#N)ncn2-c2ccccc2C1=O | 184 to 186 |
| O=C(/C=C/c1c[nH]cn1)Oc1ccc([N+](=O)[O-])cc1 | 220 to 222 |
| CSc1c2c3c(n1C)C(=O)C(=O)C(Cl)=C3NCC2 | 205 |

— a melting point compilation (Tetko et al.; mined from patent text by program, amines drawn as free bases though some values may be those of a salt)
